The values that follow come from patent US10894798B2, “Substituted dihydropyrrolopyrazole derivative” (UBE INDUSTRIES, LTD., priority 2015, dated 2021).

The test system of assay [1] is human large intestine cancer cell line (HCT-116). Description: Human large intestine cancer (HCT-116) cell growth inhibition test. The settings on record: HCT-116, 72 h, culture for 3 days, sulforhodamine B, read-out: GI50 value, HCT-116 cell growth inhibition. Type of assay: cell-based. As for the experimental part:
The measurement of a human large intestine cancer cell growth inhibitory effect was carried out by modifying the method of Simak et al. (Cancer Research, 69, 6208 (2009)).
A human large intestine cancer cell line (HCT-116, obtained from DS Pharma Biomedical Co., Ltd.) was cultured in a McCoy's 5A medium (manufactured by Thermo Fisher Scientific, Inc.) containing 10% fetal bovine serum (FBS) (manufactured by Thermo Fisher Scientific, Inc.) and 1% penicillin/streptomycin/amphotericin B (manufactured by Thermo Fisher Scientific, Inc.) and inoculated at 0.5 to 2.0×10^3 cells/well in a 96-well plate. After overnight culture in a carbon dioxide incubator, the medium was replaced with a fresh medium on the next day, and a test compound dissolved in DMSO (final DMSO concentration: 0.1%) was added thereto and left standing in a carbon dioxide incubator. After culture for 3 days, the absorbance thereof was measured by using In Vitro Toxicology Assay Kit Sulforhodamine B based (manufactured by Sigma-Aldrich Co. LLC.).
The rate of inhibition of cell growth at each concentration was calculated from the test compound concentration and the absorbance of sulforhodamine B, and the concentration of the test compound necessary for inhibiting 50% of cell growth (GI50 value) was calculated by using EXSUS (version 8.1.0, manufactured by CAC Exicare Corp.).

The next assay addresses T1, CDK7 (Homo sapiens, UniProt P50613).
T1 construct: purchased Carna Biosciences, Inc. 04-108
Put plainly: CDK7 enzyme inhibition test. Format: biochemical. The settings on record: [γ-33P]ATP, MBP substrate, 60 min preincubation at 25°C; Ki=IC50/(1+S/Km); read-out: Ki value of CDK7 inhibitory activity. Here is the method:
The preparation of a buffer solution was performed by mixing a N-2-hydroxyethylpiperazine-N′-2-ethanesulfonic acid buffer solution (HEPES buffer solution) (pH 7.4), dithiothreitol (DTT), Triton X-100, and magnesium chloride (MgCl2). A 500 μM [γ-^33P]ATP solution was used by diluting a 10 mM ATP solution and a commercially available [γ-^33P]ATP solution (manufactured by PerkinElmer, Inc., Code No. NEG-302H) with the buffer solution. A CDK7 solution was used by diluting commercially available CDK7 (manufactured by Carna Biosciences, Inc., Catalog No. 04-108) with the buffer solution. A substrate solution was used by diluting myelin basic protein (MBP) with the buffer solution. As for the preparation of a reaction solution, the buffer solution, the CDK7 solution, and the substrate solution were mixed at 4° C. to obtain a reaction solution.
CDK7 enzyme reaction was performed by adding 5 μL of a test compound solution prepared with 10% DMSO/90% injectable distilled water, and 40 μL of the reaction solution to a 1.5 mL microtube at 4° C. and preincubating the microtube at 25° C. for 60 minutes in a water bath incubator. Subsequently, reaction was performed at 30° C. for 20 minutes by adding 5 μL of the 500 μM [γ-^33P]ATP solution. After the reaction, a 10% aqueous trichloroacetic acid (TCA) solution was added to each microtube while cooled to 4° C., and mixed in a vortex mixer to terminate the reaction. The resultant was left standing at 4° C. for 10 minutes and then centrifuged, and the supernatant was discarded. Next, a 2% aqueous trichloroacetic acid (TCA) solution was added thereto, mixed in a vortex mixer, and then centrifuged, and the supernatant was discarded. This washing operation was performed twice. After the washing, precipitates were dissolved in a 1 N aqueous sodium hydroxide (NaOH) solution, and the energy quantity (radioactivity) of the reaction product was measured with a liquid scintillation counter.
The calculation of the inhibitory activity of the test compound against CDK7 was performed as a test compound concentration inhibiting 50% of the amount of ^33P bound to MBP (IC50 value) by using EXSUS (version 8.1.0, manufactured by CAC Exicare Corp.).
The calculation of a Ki value was performed according to the following calculation expression wherein S represents the concentration of ATP contained in the reaction solution, and Km represents a Michaelis-Menten constant: Ki=IC50/(1+S/Km)

pKi: −log10 of the molar value. Bounds are passed on as bounds.

The term GI50 denotes the concentration giving 50% growth inhibition. Usually pKi stands for the negative decadic logarithm of the Ki, by convention in mol/L.

T1 sequence (P50613 whole entry): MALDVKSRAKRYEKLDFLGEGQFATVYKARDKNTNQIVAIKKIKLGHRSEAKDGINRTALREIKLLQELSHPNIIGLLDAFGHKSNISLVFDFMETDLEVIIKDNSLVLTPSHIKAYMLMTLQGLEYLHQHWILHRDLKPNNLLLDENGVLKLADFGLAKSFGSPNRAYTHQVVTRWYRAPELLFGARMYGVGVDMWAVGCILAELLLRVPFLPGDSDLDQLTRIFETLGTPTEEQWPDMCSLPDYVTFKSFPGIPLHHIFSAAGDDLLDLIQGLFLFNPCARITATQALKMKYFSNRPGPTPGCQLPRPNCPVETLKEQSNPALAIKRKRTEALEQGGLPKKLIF
T1 sequence (P51946 whole entry partner): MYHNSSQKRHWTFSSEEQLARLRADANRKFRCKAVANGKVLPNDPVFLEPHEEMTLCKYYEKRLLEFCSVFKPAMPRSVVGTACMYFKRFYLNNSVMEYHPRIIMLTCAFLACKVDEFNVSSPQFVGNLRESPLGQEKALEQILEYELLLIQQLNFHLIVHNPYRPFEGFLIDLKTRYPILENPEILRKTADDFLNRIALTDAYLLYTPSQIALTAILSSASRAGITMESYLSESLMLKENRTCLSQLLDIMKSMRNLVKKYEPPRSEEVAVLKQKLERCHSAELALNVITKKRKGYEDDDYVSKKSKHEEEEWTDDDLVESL
T1 sequence (P51948 whole entry partner): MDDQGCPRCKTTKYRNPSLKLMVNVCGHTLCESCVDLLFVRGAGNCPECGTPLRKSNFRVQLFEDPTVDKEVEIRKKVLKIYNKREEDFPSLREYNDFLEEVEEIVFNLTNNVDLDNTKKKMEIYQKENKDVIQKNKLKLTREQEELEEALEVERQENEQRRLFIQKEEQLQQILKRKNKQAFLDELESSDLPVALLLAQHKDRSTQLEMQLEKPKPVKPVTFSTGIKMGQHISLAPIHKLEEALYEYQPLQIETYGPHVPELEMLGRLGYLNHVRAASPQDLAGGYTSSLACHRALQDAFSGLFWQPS

Regarding `Cc1nscc1NC(=O)N1Cc2c(NC(=O)C3([Si](C)(C)C)CCC3)n[nH]c2C1(C)C` [IV-1035, 6,6-Dimethyl-N-(3-methylisothiazol-4-yl)-3-[1-(trimethylsilyl)cyclobutanecarboxamido]-4,6-dihydropyrrolo[3,4-c]pyrazole-5 (1H)-carboxamide], the GI50 in assay [1] was no more than 100 nM. For the same molecule, on CDK7, the pKi is no less than 7.30.
In the case of `CC1(C)c2[nH]nc(NC(=O)C3([Si](C)(C)C)CCC3)c2CN1C(=O)Nc1cccc(F)c1F` [IV-99, N-(2,3-Difluorophenyl)-6,6-dimethyl-3-[1-(trimethylsilyl)cyclobutanecarboxamido]-4,6-dihydropyrrolo[3,4-c]pyrazole-5(1H)-carboxamide], the GI50 in assay [1] was no more than 100 nM. In addition, the pKi at CDK7 is no less than 7.30.
Regarding `COc1ccc(Cl)c(NC(=O)N2Cc3c(NC(=O)C4([Si](C)(C)C)CCC4)n[nH]c3C2(C)C)c1` [IV-245, N-(2-Chloro-5-methoxyphenyl)-6,6-dimethyl-3-[1-(trimethylsilyl)cyclobutanecarboxamido]-4,6-dihydropyrrolo[3,4-c]pyrazole-5(1H)-carboxamide], the GI50 in assay [1] is no more than 100 nM.
As to `Cc1cccc(NC(=O)N2Cc3c(NC(=O)C4([Si](C)(C)C)CCC4)n[nH]c3C2(C)C)c1C` [IV-375, N-(2,3-Dimethylphenyl)-6,6-dimethyl-3-[1-(trimethylsilyl)cyclobutanecarboxamido]-4,6-dihydropyrrolo[3,4-c]pyrazole-5(1H)-carboxamide], in assay [1], the concentration for 50% growth inhibition (GI50) was no more than 100 nM. At CDK7, the pKi was no less than 7.30.
Turning to `CC1(C)c2[nH]nc(NC(=O)C3([Si](C)(C)C)CCC3)c2CN1C(=O)Nc1ccc(F)cc1` [IV-7, N-(4-Fluorophenyl)-6,6-dimethyl-3-[1-(trimethylsilyl)cyclobutanecarboxamido]-4,6-dihydropyrrolo[3,4-c]pyrazole-5(1H)-carboxamide], the GI50 in assay [1] is no more than 100 nM. The pKi on CDK7 is no less than 7.30.
With `Cc1ccc(NC(=O)N2Cc3c(NC(=O)C4([Si](C)(C)C)CCC4)n[nH]c3C2(C)C)cc1` [IV-25, 6,6-Dimethyl-N-(p-tolyl)-3-[1-(trimethylsilyl)cyclobutanecarboxamido]-4,6-dihydropyrrolo[3,4-c]pyrazole-5(1H)-carboxamide], the GI50 in assay [1] is no more than 100 nM.
With `CC1(C)c2[nH]nc(NC(=O)C3([Si](C)(C)C)CCC3)c2CN1C(=O)Nc1cc(F)ccc1Cl` [IV-191, N-(2-Chloro-5-fluorophenyl)-6,6-dimethyl-3-[1-(trimethylsilyl)cyclobutanecarboxamido]-4,6-dihydropyrrolo[3,4-c]pyrazole-5 (1H)-carboxamide], the GI50 in assay [1] was no more than 100 nM.
As for `CC1(C)c2[nH]nc(NC(=O)C3([Si](C)(C)C)CCC3)c2CN1C(=O)Nc1cccnc1` [IV-1019, 6,6-Dimethyl-N-(pyridin-3-yl)-3-[1-(trimethylsilyl)cyclobutanecarboxamido]-4,6-dihydropyrrolo[3,4-c]pyrazole-5(1H)-carboxamide], on CDK7, the pKi was no less than 7.30.
For the molecule `CC1(C)c2[nH]nc(NC(=O)C3([Si](C)(C)C)CCC3)c2CN1C(=O)Nc1c(F)cc(F)cc1F` [IV-599, 6,6-Dimethyl-N-(2,4,6-trifluorophenyl)-3-[1-(trimethylsilyl)cyclobutanecarboxamido]-4,6-dihydropyrrolo[3,4-c]pyrazole-5(1H)-carboxamide], in assay [1], the GI50 is no more than 100 nM. For the same molecule, the pKi at CDK7 is no less than 7.30.
As for `Cc1cccc(NC(=O)N2Cc3c(NC(=O)C4([Si](C)(C)C)CCC4)n[nH]c3C2(C)C)c1` [IV-23, 6,6-Dimethyl-N-(m-tolyl)-3-[1-(trimethylsilyl)cyclobutanecarboxamido]-4,6-dihydropyrrolo[3,4-c]pyrazole-5(1H)-carboxamide], the GI50 in assay [1] is no more than 100 nM. At CDK7, the pKi was no less than 7.30.
Consider `CC1(C)c2[nH]nc(NC(=O)C3([Si](C)(C)C)CCC3)c2CN1C(=O)Nc1ccccc1C#N` [IV-63, N-(2-Cyanophenyl)-6,6-dimethyl-3-[1-(trimethylsilyl)cyclobutanecarboxamido]-4,6-dihydropyrrolo[3,4-c]pyrazole-5(1H)-carboxamide], for which the GI50 in assay [1] is no more than 100 nM. Moreover, at CDK7, the pKi is no less than 7.30.
Take `CC1(C)c2[nH]nc(NC(=O)C3([Si](C)(C)C)CCC3)c2CN1C(=O)Nc1cccc(F)c1` [IV-5, N-(3-Fluorophenyl)-6,6-dimethyl-3-[1-(trimethylsilyl)cyclobutanecarboxamido]-4,6-dihydropyrrolo[3,4-c]pyrazole-5(1H)-carboxamide]: the GI50 in assay [1] is no more than 100 nM.
With `Cc1cccc(Br)c1NC(=O)N1Cc2c(NC(=O)C(C)(C)[Si](C)(C)C)n[nH]c2C1(C)C` [II-290, N-(2-Bromo-6-methylphenyl)-6,6-dimethyl-3-[2-methyl-2-(trimethylsilyl)propanamido]-4,6-dihydropyrrolo[3,4-c]pyrazole-5(1H)-carboxamide], at CDK7, the pKi was no less than 7.30.
For `CN(C(=O)N1Cc2c(NC(=O)C3([Si](C)(C)C)CCC3)n[nH]c2C1(C)C)c1ccccc1` [I-965, N,6,6-Trimethyl-N-phenyl-3-[1-(trimethylsilyl)cyclobutanecarboxamido]-4,6-dihydropyrrolo[3,4-c]pyrazole-5(1H)-carboxamide], on CDK7, the pKi is no less than 7.30.
Consider `CC1(C)c2[nH]nc(NC(=O)C3([Si](C)(C)C)CCC3)c2CN1C(=O)Nc1cc(Cl)ccc1Cl` [IV-197, N-(2,5-Dichlorophenyl)-6,6-dimethyl-3-[1-(trimethylsilyl)cyclobutanecarboxamido]-4,6-dihydropyrrolo[3,4-c]pyrazole-5(1H)-carboxamide], for which the GI50 in assay [1] was no more than 100 nM.
As to `Cc1ccc(Cl)c(NC(=O)N2Cc3c(NC(=O)C4([Si](C)(C)C)CCC4)n[nH]c3C2(C)C)c1` [IV-213, N-(2-Chloro-5-methylphenyl)-6,6-dimethyl-3-[1-(trimethylsilyl)cyclobutanecarboxamido]-4,6-dihydropyrrolo[3,4-c]pyrazole-5 (1H)-carboxamide], the GI50 in assay [1] is no more than 100 nM.
For the molecule `CC1(C)c2[nH]nc(NC(=O)C3([Si](C)(C)C)CCC3)c2CN1C(=O)Nc1cccc(Cl)c1` [IV-11, N-(3-Chlorophenyl)-6,6-dimethyl-3-[1-(trimethylsilyl)cyclobutanecarboxamido]-4,6-dihydropyrrolo[3,4-c]pyrazole-5(1H)-carboxamide], the GI50 in assay [1] is no more than 100 nM.
As for `Cc1cccc(NC(=O)N2Cc3c(NC(=O)C4([Si](C)(C)C)CCC4)n[nH]c3C2(C)C)c1F` [IV-123, N-(2-Fluoro-3-methylphenyl)-6,6-dimethyl-3-[1-(trimethylsilyl)cyclobutanecarboxamido]-4,6-dihydropyrrolo[3,4-c]pyrazole-5 (1H)-carboxamide], the GI50 in assay [1] is no more than 100 nM.
In the case of `CCOc1ccccc1NC(=O)N1Cc2c(NC(=O)C3([Si](C)(C)C)CCC3)n[nH]c2C1(C)C` [IV-81, N-(2-Ethoxyphenyl)-6,6-dimethyl-3-[1-(trimethylsilyl)cyclobutanecarboxamido]-4,6-dihydropyrrolo[3,4-c]pyrazole-5(1H)-carboxamide], the GI50 in assay [1] is no more than 100 nM.
Turning to `CC[Si](C)(C)C1(C(=O)Nc2n[nH]c3c2CN(C(=O)Nc2ccccc2F)C3(C)C)CCC1` [IV-4, 3-[1-(Ethyldimethylsilyl)cyclobutanecarboxamido]-N-(2-fluorophenyl)-6,6-dimethyl-4,6-dihydropyrrolo[3,4-c]pyrazole-5(1H)-carboxamide], the GI50 in assay [1] is no more than 100 nM.
